In patent publication US9828396B2, “Alkyne compounds for treatment of complement mediated disorders” (Achillion Pharmaceuticals, Inc., priority 2014, dated 2017):

Biological target: Human factor D (Homo sapiens (Human), UniProt P00746)
Assay: Human Factor D Assay
Type: biochemical
Settings: Human factor D 80 nM, substrate Z-L-Lys-SBzl, assay of Example 12
Method in brief: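 Serum-purified human factor D (80 nM final) was preincubated 5 min at room temperature with compound in 50 mM Tris, 1 M NaCl, pH 7.5. Z-L-Lys-SBzl and DTNB (100 μM each) were added and OD405 followed kinetically over 30 min; IC50 from non-linear regression of percent inhibition.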

Sequence of Human factor D (P00746 26-253): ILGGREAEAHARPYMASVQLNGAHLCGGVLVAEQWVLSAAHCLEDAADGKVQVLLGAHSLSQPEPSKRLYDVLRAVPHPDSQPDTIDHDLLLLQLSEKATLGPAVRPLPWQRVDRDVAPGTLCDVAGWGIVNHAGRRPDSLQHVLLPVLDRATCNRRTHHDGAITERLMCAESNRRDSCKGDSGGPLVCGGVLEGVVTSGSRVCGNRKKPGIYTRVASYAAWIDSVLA

| SMILES | IC50 [nM] |
| --- | --- |
| NC(=O)c1nn(CC(=O)N2[C@@H]3C[C@@H]3C[C@H]2C(=O)Nc2cccc(-c3ccccc3Cl)c2F)c2ccc(C#Cc3ncc(F)cn3)cc12 [Compound 53, 1-(2-((1R,3S,5R)-3-(2′-chloro-2-fluorobiphenyl-3-ylcarbamoyl)-2-azabicyclo[3.1.0]hexan-2-yl)-2-oxoethyl)-5-((5-fluoropyrimidin-2-yl)ethynyl)-1H-indazole-3-carboxamide] | < 1000 |
| CC(=O)c1cn(CC(=O)N2C[C@H](F)C[C@H]2C(=O)NCc2cccc(Cl)c2F)c2ccc(C#Cc3cnccn3)cc12 [Compound 26, (2S,4R)-1-(2-(3-acetyl-5-(pyrazin-2-ylethynyl)-1H-indol-1-yl)acetyl)-N-(3-chloro-2-fluorobenzyl)-4-fluoropyrrolidine-2-carboxamide] | < 1000 |
| O=C(O)C#Cc1ccc2c(C(=O)C(F)(F)F)cn(CC(=O)N3C[C@H](F)C[C@H]3C(=O)NCc3cccc(Cl)c3F)c2c1 [Compound 11, 3-(1-(2-((2S,4R)-2-(3-chloro-2-fluorobenzylcarbamoyl)-4-fluoropyrrolidin-1-yl)-2-oxoethyl)-3-(2,2,2-trifluoroacetyl)-1H-indol-6-yl)propiolic acid] | < 1000 |
| NC(=O)c1nn(CC(=O)N2[C@@H]3C[C@@H]3C[C@H]2C(=O)Nc2cccc(Cl)n2)c2ccc(C#Cc3cccnn3)cc12 [Compound 77, 1-(2-((1R,3S,5R)-3-(6-chloropyridin-2-ylcarbamoyl)-2-azabicyclo[3.1.0]hexan-2-yl)-2-oxoethyl)-5-(pyridazin-3-ylethynyl)-1H-indazole-3-carboxamide] | < 1000 |
| CC(=O)c1cn(CC(=O)N2C[C@H](F)C[C@H]2C(=O)NCc2cccc(Cl)c2F)c2ccc(C#CC(=O)O)cc12 [Compound 6, 3-(3-acetyl-1-(2-((2S,4R)-2-(3-chloro-2-fluorobenzylcarbamoyl)-4-fluoropyrrolidin-1-yl)-2-oxoethyl)-1H-indol-5-yl)propiolic acid] | < 1000 |
| NC(=O)c1nn(CC(=O)N2C[C@H](F)C[C@H]2C(=O)NCc2cccc(Cl)c2F)c2ccc(C#Cc3cccc(F)n3)cc12 [Compound 37, 1-(2-((2S,4R)-2-(3-chloro-2-fluorobenzylcarbamoyl)-4-fluoropyrrolidin-1-yl)-2-oxoethyl)-5-((6-fluoropyridin-2-yl)ethynyl)-1H-indazole-3-carboxamide] | < 1000 |
| NC(=O)c1nn(CC(=O)N2C[C@H](F)C[C@H]2C(=O)NCc2cccc(Cl)c2F)c2ccc(C#Cc3ccc(F)cn3)cc12 [Compound 35, 1-(2-((2S,4R)-2-(3-chloro-2-fluorobenzylcarbamoyl)-4-fluoropyrrolidin-1-yl)-2-oxoethyl)-5-((5-fluoropyridin-2-yl)ethynyl)-1H-indazole-3-carboxamide] | < 1000 |
| NC(=O)c1nn(CC(=O)N2C[C@H](F)C[C@H]2C(=O)Nc2cncc(-c3ccccc3Cl)n2)c2ccc(C#Cc3ncc(F)cn3)cc12 [Compound 85, 1-(2-((2S,4R)-2-(6-(2-chlorophenyl)pyrazin-2-ylcarbamoyl)-4-fluoropyrrolidin-1-yl)-2-oxoethyl)-5-((5-fluoropyrimidin-2-yl)ethynyl)-1H-indazole-3-carboxamide] | < 1000 |
| COc1nc(C#Cc2ccc3c(c2)c(C(N)=O)nn3CC(=O)N2C[C@H](F)C[C@H]2C(=O)Nc2cccc(-c3ccccc3Cl)c2F)ncc1F [Compound 78, 1-(2-((2S,4R)-2-(2′-chloro-2-fluorobiphenyl-3-ylcarbamoyl)-4-fluoropyrrolidin-1-yl)-2-oxoethyl)-5-((5-fluoro-4-methoxypyrimidin-2-yl)ethynyl)-1H-indazole-3-carboxamide] | < 1000 |
| NC(=O)c1nn(CC(=O)N2C[C@H](F)C[C@H]2C(=O)Nc2cccc(-c3cc(F)c(F)cc3Cl)c2F)c2ccc(C#Cc3ncc(F)cn3)cc12 [Compound 63, 1-(2-((2S,4R)-2-(2′-chloro-2,4′,5′-trifluorobiphenyl-3-ylcarbamoyl)-4-fluoropyrrolidin-1-yl)-2-oxoethyl)-5-((5-fluoropyrimidin-2-yl)ethynyl)-1H-indazole-3-carboxamide] | < 1000 |
| CC(=O)c1cn(CC(=O)N2C[C@H](F)C[C@H]2C(=O)NCc2cccc(Cl)c2F)c2ccc(C#Cc3c[nH]c(=O)nc3N)cc12 [Compound 7, (2S,4R)-1-(2-(3-acetyl-5-((4-amino-2-oxo-1,2-dihydropyrimidin-5-yl)ethynyl)-1H-indol-1-yl)acetyl)-N-(3-chloro-2-fluorobenzyl)-4-fluoropyrrolidine-2-carboxamide] | < 1000 |
| NC(=O)c1nn(CC(=O)N2C[C@H](F)C[C@H]2C(=O)Nc2nc(Cl)ccc2F)c2ccc(C#Cc3ncc(F)cn3)cc12 [Compound 81, 1-(2-((2S,4R)-2-(6-chloro-3-fluoropyridin-2-ylcarbamoyl)-4-fluoropyrrolidin-1-yl)-2-oxoethyl)-5-((5-fluoropyrimidin-2-yl)ethynyl)-1H-indazole-3-carboxamide] | < 1000 |
